PMC6269792, “Arylsulfonylamino-Benzanilides as Inhibitors of the Apical Sodium-Dependent Bile Salt Transporter (SLC10A2)” (Molecules, 2013)

Columns and labels:
Human ASBT = biological target: T1, Human ASBT (Homo sapiens, UniProt Q12908); test: ASBT inhibition assay: [3H]-taurocholic acid uptake in HEK293T cells transiently transfected with human ASBT; assay type: cell-based; settings: for inhibition at 10 µM: HEK-293T; for IC50: inhibitor concentration that gives 50% taurocholate uptake compared to no inhibitor control
T1 construct: expressed in transfected cells; host or cells: HEK293T
T1 sequence (Q12908 1-348): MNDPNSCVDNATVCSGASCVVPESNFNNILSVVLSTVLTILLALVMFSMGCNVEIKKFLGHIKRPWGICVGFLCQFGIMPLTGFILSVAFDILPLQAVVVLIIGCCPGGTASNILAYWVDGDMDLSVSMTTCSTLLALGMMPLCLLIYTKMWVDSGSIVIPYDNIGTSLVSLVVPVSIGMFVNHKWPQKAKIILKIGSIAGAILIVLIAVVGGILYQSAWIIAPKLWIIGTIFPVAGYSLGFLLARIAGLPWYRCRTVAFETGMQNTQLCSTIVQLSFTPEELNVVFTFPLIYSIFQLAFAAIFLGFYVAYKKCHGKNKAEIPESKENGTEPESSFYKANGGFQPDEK
Procedure: In vitro inhibitory activity of all target compounds against ASBT was evaluated using a radioisotope-based assay. All the newly synthesized derivatives were initially tested at 10 μM concentration (Table 1).
HEK293T was obtained from the American Type Culture Collection (Manassas, VA, USA), and grown in MEM supplemented with 100 U/mL penicillin and […] streptomycin and 10% heat-inactivated fetal bovine serum. Human ASBT expression construct was prepared as previously described. HEK293T cells were seeded in 12 well plates and transiently transfected with 0.5 μg/well pcDNA3.1/ASBT or negative control plasmid pcDNA3.1 using lipofactamine 2000 (Invitrogen, Carlsbad, CA, USA) according to the manufacturer’s instructions. Twenty-four hours after transfection, HEK293T cells were assayed for taurocholic acid uptake as previously described with minor modifications. […] To terminate the transport process, the plates were chilled on ice and the cells were immediately washed with ice-cold buffer three times. Cells were lysed with 0.3 mL lysis buffer (0.5% triton x-100) and shaken vigorously for 20 min. The radioactivity of the cell lysate was counted using a MicroBeta^2 Liquid Scintillation and Luminescence Counter (PerkinElmer Life Sciences). Protein concentration of the lysate was used to normalize uptake activity.
The inhibition rate was calculated using the following formula: Inhibition Rate (%) = [(1 − (A − C)/(B − C)] × 100
A, [^3H] uptake value of test compound in [^3H]-TCA buffer added to pcDNA3.1/ASBT transfected cells; B, [^3H] uptake value of DMSO (without inhibitor) in [^3H]-TCA buffer added to pcDNA3.1/ASBT transfected cells; C, [^3H] uptake value of Blank sample (DMSO) in [^3H]-TCA buffer added to empty vector (pcDNA3.1) transfected cells.

ASBT = settings: read-out: IC50 against ASBT; cited from earlier work

| Compound | inhibition at 10 µM (Human ASBT) | melting point | IC50 (ASBT) | IC50 (Human ASBT) |
| --- | --- | --- | --- | --- |
| O=C(Nc1cccc(OC(F)(F)F)c1)c1ccccc1NS(=O)(=O)c1ccc([N+](=O)[O-])cc1 [Compound 5d5, 2-(4-Nitrophenylsulfonamido)-N-(3-(trifluoromethoxy)phenyl)benzamide] | 66.7 ± 3.9% | 198.8 to 199.4 °C |  |  |
| O=C(Nc1ccc(Cl)c(Cl)c1)c1ccccc1NS(=O)(=O)c1cccc([N+](=O)[O-])c1 [Compound 5a1, N-(3,4-Dichlorophenyl)-2-(3-nitrophenylsulfonamido)benzamide] |  |  | 4000 nM |  |
| Cc1ccc(NC(=O)c2ccccc2NS(=O)(=O)c2cccc([N+](=O)[O-])c2)cc1C(F)(F)F [Compound 5a10, N-(4-Methyl-3-(trifluoromethyl)phenyl)-2-(3-nitrophenylsulfonamido)benzamide] | 90.7 ± 4.2% | 166.4 to 167.4 °C |  | 1490 ± 90 nM |
| Cc1ccc(NC(=O)c2ccccc2NS(=O)(=O)c2cccc(OC(F)(F)F)c2)cc1C(F)(F)F [Compound 5g3, N-(4-Methyl-3-(trifluoromethyl)phenyl)-2-(3-(trifluoromethoxy)phenylsulfonamido)benzamide] | 91.8 ± 3.5% | 179.4 to 180.5 °C |  | 830 ± 110 nM |
| O=C(Nc1ccc(F)c(Cl)c1)c1ccccc1NS(=O)(=O)c1cccc(OC(F)(F)F)c1 [Compound 5g2, N-(3-Chloro-4-fluorophenyl)-2-(3-(trifluoromethoxy)phenylsulfonamido)benzamide] | 98.6 ± 2.6% | 157.3 to 158.6 °C |  | 110 ± 50 nM |
| O=C(Nc1ccc(Cl)c(Cl)c1)c1ccccc1NS(=O)(=O)c1ccc([N+](=O)[O-])cc1 [Compound 5d6, N-(3,4-Dichlorophenyl)-2-(4-nitrophenylsulfonamido)benzamide] | 73.9 ± 2.2% | 243.4 to 243.6 °C |  |  |
